From patent publication US9061060B2, “Deuterated benzylbenzene derivatives and methods of use” (Theracos Inc., priority 2008, dated 2015) come the findings set out here.

One series addresses T1, human SGLT1 (Homo sapiens, UniProt P13866).
T1 sequence (P13866 1-664): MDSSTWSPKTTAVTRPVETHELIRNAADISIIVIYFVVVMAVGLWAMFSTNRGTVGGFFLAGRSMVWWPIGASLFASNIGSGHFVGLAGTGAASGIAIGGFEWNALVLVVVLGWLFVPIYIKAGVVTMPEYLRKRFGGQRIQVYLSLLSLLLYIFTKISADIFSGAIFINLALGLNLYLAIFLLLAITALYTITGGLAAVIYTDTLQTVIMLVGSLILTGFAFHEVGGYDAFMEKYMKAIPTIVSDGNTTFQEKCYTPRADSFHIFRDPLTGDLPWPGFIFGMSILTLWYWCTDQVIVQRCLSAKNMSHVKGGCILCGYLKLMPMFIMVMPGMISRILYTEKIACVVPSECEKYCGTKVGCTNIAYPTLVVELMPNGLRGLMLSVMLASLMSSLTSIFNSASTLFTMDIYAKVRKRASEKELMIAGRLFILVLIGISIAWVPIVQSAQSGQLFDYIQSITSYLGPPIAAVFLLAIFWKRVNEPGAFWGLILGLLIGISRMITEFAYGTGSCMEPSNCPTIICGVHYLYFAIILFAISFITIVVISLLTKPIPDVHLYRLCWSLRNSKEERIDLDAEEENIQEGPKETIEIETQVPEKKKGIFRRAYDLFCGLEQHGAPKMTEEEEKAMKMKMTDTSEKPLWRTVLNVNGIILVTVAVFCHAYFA
To be noted: read-out: SGLT1 IC50; COS-7 cells expressing human SGLT1; 25% human serum; 2 hours.

In a further series the target is T2, CYP3A4 (Homo sapiens, UniProt P08684).
T2 construct: purchased Promega
Kind of series: P450-Glo CYP screening kit, CYP3A4 inhibition. Format: in vitro ADME. To be noted: luminescence, read-out: IC50 3A4. The text has this:
P450-Glo™ CYP Screening Kits for CYP1A2, CYP3A4 and CYP2C19 were purchased from Promega. […] Luminescence was quantified using a Victor 3 spectrophotometer (PerkinElmer).

A further series deals with beagle dogs. Kind of series: Urinary glucose excretion in beagle dogs. To be noted: separate experiment (Table 4A). Format: in vivo. Here is the method:
Each test compound was dissolved in 10% PEG400 and administered orally to overnight-fasted beagle dogs by gavage at the dose level of 0.03 mg/kg. Control dogs were given 10% PEG400 only. One hour post dosing, glucose solution (2 g/kg, 5 mL/kg) was administered by oral gavage. Urine was collected within metabolic cages from 0 to 8 hours, and 8 to 24 hours post-dosing for urine volume and glucose measurement. Food was removed 16 hours before dosing and then provided 3 hours after dosing. Water was supplied ad libitum. The concentration of urinary glucose was determined at 8 hours and 24 hours post-dose using a biochemistry analyzer.

The nature of series [1]: Pharmacokinetic parameters in SD rats. Format: in vivo, Sprague-Dawley rats. To be noted: single oral 3 mg/kg in 30% PEG400, plasma. Here is the method:
The pharmacokinetic study of each test compound was conducted in 4 Sprague-Dawley rats following a single oral administration of 3 mg/kg of the compound. The dose was prepared by dissolving test article in appropriate volume of 30% PEG400. The plasma samples were collected from the orbital plexus at 0.083, 0.25, 0.50, 1.0, 2.0, 4.0, 6.0, 8.0, 12 and 24 hours post dose, and the plasma concentrations were determined by a developed LC-MS/MS method.

A further series has as its system SD rats. Nature of the series: Urinary glucose excretion in SD rats. Format: in vivo. To be noted: 1 mg/kg oral. The method, then:
Each test compound was dissolved in 30% PEG400 and administered orally to overnight-fasted SD rats by gavage at the dose level of 1 mg/kg. Control rats were given 30% PEG400 only. One hour post dosing, glucose solution (2 g/kg, 10 mL/kg) was administered by oral gavage. Urine was collected within metabolic cages from 0 to 4 hours, and 4 to 24 hours post-dosing for urine volume and glucose measurement. Food was removed 16 hours before dosing and then provided 4 hours after dosing. Water was supplied ad libitum. The concentration of urinary glucose was determined at 4 hours and 24 hours post-dose using a biochemistry analyzer. Results were recorded for the periods 0-4 hours, 4-24 hours and 0-24 hours, and expressed as a percentage of the urinary glucose excretion (UGE) seen with reference compound A, which was run as a positive control in all experiments.

T2 sequence (P08684 whole entry): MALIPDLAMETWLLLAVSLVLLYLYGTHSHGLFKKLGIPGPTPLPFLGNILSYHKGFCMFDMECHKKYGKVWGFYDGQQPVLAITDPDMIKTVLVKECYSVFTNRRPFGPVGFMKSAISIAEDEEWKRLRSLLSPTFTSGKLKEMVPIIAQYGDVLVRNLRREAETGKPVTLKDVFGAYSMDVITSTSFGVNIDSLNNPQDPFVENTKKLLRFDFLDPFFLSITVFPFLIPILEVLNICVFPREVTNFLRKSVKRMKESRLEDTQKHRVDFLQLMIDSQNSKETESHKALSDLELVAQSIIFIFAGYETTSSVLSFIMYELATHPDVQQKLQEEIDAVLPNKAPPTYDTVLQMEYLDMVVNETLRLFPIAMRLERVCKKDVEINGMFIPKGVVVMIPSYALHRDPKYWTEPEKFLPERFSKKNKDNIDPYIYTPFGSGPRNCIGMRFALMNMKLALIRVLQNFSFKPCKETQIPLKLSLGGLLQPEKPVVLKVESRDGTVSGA
Description for human SGLT1: Full-length human SGLT1 cDNA in the pDream2.1 expression vector was obtained from GenScript Corporation and propagated in Escherichia coli strain DH5α using Luria-Bertani (LB) medium containing ampicillin. Plasmid DNA was isolated using the QIAGEN Plasmid Midi Kit (QIAGEN Inc.). […] Transfected cells were stored in DMEM containing 10% dimethyl sulfoxide (DMSO) at −80° C.
Cells expressing SGLT1 or SGLT2 were seeded on 96-well ScintiPlate scintillating plates (PerkinElmer, Inc.) in DMEM containing 10% FBS (1×10^5 cells per well in 1001 medium) incubated at 37° C. under 5% CO2 for 48 hours prior to the assay. […] Cells were washed twice with 150 μl of wash buffer (137 mM N-methylglucamine, 10 mM Tris/Hepes, pH 7.2) and methyl-α-D-[U-^14C]glucopyranoside uptake was quantified using a TopCount scintillation counter (PerkinElmer, Inc.). Sodium-dependent glucopyranoside uptake was measured by subtracting the values obtained with sodium-free buffer from those obtained using sodium buffer (average of triplicate determinations). The IC50 for SGLT2 and SGLT1 were determined, and the selectivity for SGLT2 inhibition was calculated by dividing the SGLT1 IC50 by the SGLT2 IC50.

Consider `COc1ccc(Cc2cc([C@@H]3O[C@H](CO)[C@@H](O)[C@H](O)[C@H]3O)ccc2Cl)cc1` [Ref B, (2S,3R,4R,5S,6R)-2-(4-chloro-3-(4-methoxybenzyl)phenyl)-6-(hydroxymethyl)tetrahydro-2H-pyran-3,4,5-triol, reference compound], for which, on human SGLT1, the IC50 – broadly, the concentration that gives 50% inhibition – amounted to 540 nM. The half-inhibitory concentration (IC50) on CYP3A4 was 250 µM. For the same compound, in the series on beagle dogs (0-8 h), the “Urinary Glucose Excretion in Dogs, 0-8 h (mean ± SD)” value is on record as 3322 ± 464 mg. In addition, in the series with beagle dogs, the “Urinary Glucose Excretion in Dogs, 0-24 h (mean ± SD)” value is reported as 16726 ± 1507 mg and the “Urinary Glucose Excretion in Dogs, 8-24 h (mean ± SD)” value came out at 13404 ± 1888 mg. The CL/F (as a rule, clearance divided by bioavailability, as obtained after extravascular dosing) in series [1] (Sprague-Dawley, rat) is 9.47 mL/min/kg. In addition, in series [1] (Sprague-Dawley, rat, read-out: AUC0-t (mean ± SD)), the AUC(0-t) amounted to 5240 ± 715 ng·h/mL. Besides, in series [1], the “Cmax (mean ± SD)” value stood at 1638 ± 326 ng/mL, the “t1/2 (mean ± SD)” value came out at 3.55 ± 1.80 h and the “tmax (mean ± SD)” value is 33.6 ± 18.6 min. Also, in the series on SD rats (0-4 h), the “Urinary Glucose Excretion in Rats, 0-4 h, % relative to Ref A” value amounted to 122%. In addition, in the series on SD rats, the “Urinary Glucose Excretion in Rats, 0-24 h, % relative to Ref A” value is 78%. In addition, the “Urinary Glucose Excretion in Rats, 4-24 h, % relative to Ref A” value with SD rats (4-24 h) was 74%. The “Urinary Glucose Excretion in Rats, 0-4 h (mean ± SD)” value in the series on SD rats (glucose 2 g/kg 1 h post dose, 0-4 h) is reported as 233 ± 35 mg. In the series on SD rats (glucose 2 g/kg 1 h post dose), the “Urinary Glucose Excretion in Rats, 0-24 h (mean ± SD)” value was found to be 1889 ± 361 mg. Further, the “Urinary Glucose Excretion in Rats, 4-24 h (mean ± SD)” value with SD rats (glucose 2 g/kg 1 h post dose, 4-24 h) stood at 1657 ± 354 mg.
As to `[2H]C([2H])([2H])Oc1ccc(C([2H])([2H])c2cc([C@@H]3O[C@H](CO)[C@@H](O)[C@H](O)[C@H]3O)ccc2Cl)cc1` [compound 19, (2S,3R,4R,5S,6R)-2-(4-chloro-3-((4-(methoxy-d3)phenyl)methyl-d2)phenyl)-6-(hydroxymethyl)tetrahydro-2H-pyran-3,4,5-triol], the IC50 at human SGLT1 was 820 nM. For the same compound, the IC50 on CYP3A4 is greater than 1000 µM. For the same compound, in the series with beagle dogs, the “Urinary Glucose Excretion in Dogs, 0-24 h (mean ± SD)” value is reported as 15928 ± 321 mg and the “Urinary Glucose Excretion in Dogs, 8-24 h (mean ± SD)” value is listed as 12516 ± 485 mg. Besides, the “Urinary Glucose Excretion in Rats, 0-24 h, % relative to Ref A” value in the series with SD rats is 83%. Moreover, in the series on SD rats (glucose 2 g/kg 1 h post dose), the “Urinary Glucose Excretion in Rats, 0-24 h (mean ± SD)” value turned out to be 2096 ± 332 mg.
